Values quoted from earlier work in paper PMC6101361 (PLoS ONE, 2018).

Tested on: anti-ß1EC2-induced heart failure in rats
Conditions: daily applications; ref [20]
Source text: The observed trend to ...

CC(C)NCC(O)COc1ccc(COCCOC(C)C)cc1 (stereo not shown) [bisoprolol]
effect on anti-ß1EC2–induced heart failure: only delayed progression of anti-ß1EC2–induced heart failure
